Source: US20240279236A1, “COMPOUNDS AND METHODS OF TREATING TUBERCULOSIS” (Fimbrion Therapeutics, Inc., priority 2021, published 2024)

These compounds were tested on WT Mtb Erdman strain (assay: Microplate Alamar Blue Assay (MABA), Mtb growth inhibition). Conditions: Mycobacterium tuberculosis, ERDMAN, 168 h, Middlebrook 7H9 media, 7 days at 37° C. in 5% CO2.
Format: cell-based, Mycobacterium tuberculosis

| Structure (SMILES) | IC50 [nM] |
| --- | --- |
| Cc1cc2c(NCCCc3cccc(F)c3)nc(C(F)(F)F)nc2s1 [Example 231, N-(3-(3-fluorophenyl)propyl)-6-methyl-2-(trifluoromethyl)thieno [2,3-d]pyrimidin-4-amine] | 1500 |
| CCc1nc(NCCCc2ccc(-c3ccccn3)cc2)c2cc(C)sc2n1 [Example 368, 2-ethyl-6-methyl-N-(3-(4-(pyridin-2-yl)phenyl)propyl) thieno[2,3-d] pyrimidin-4-amine] | 210 |
| FC(F)(F)Oc1ccc(CCCNc2nc(-c3ccccn3)nc3sccc23)cc1 [Example 35, 2-(pyridin-2-yl)-N-(3-(4-(trifluoromethoxy)phenyl)propyl)thieno[2,3-d]pyrimidin-4-amine] | 2200 |
| Cc1cc2c(NCCCc3ccccc3)nc(-c3ccsc3)nc2s1 [Example 101, 6-methyl-N-(3-phenylpropyl)-2-(thiophen-3-yl)thieno[2,3-d]pyrimidin-4-amine] | 490 |
| Cc1cc2c(NCCCc3ccccc3)nc(Cc3ccc(F)cc3)nc2s1 [Example 137, 2-(4-fluorobenzyl)-6-methyl-N-(3-phenylpropyl)thieno [2,3-d]pyrimidin-4-amine] | > 10000 |
| CCc1nc(NCCCc2ccc(Br)cc2)c2cc(C)sc2n1 [Example 199, N-(3-(4-bromophenyl)propyl)-2-ethyl-6-methylthieno[2,3-d]pyrimidin-4-amine] | 120 |
| Cc1cc2c(NCCn3cccc3)nc(C(F)(F)F)nc2s1 [Example 183, N-(2-(1H-pyrrol-1-yl)ethyl)-6-methyl-2-(trifluoromethyl) thieno[2,3-d]pyrimidin-4-amine] | > 10000 |
| CCc1nc(NC(=O)CCCc2ccccc2)c2cc(C)sc2n1 [Example 576, N-(2-ethyl-6-methylthieno[2,3-d]pyrimidin-4-yl)-4-phenylbutanamide] | 3400 |
| FC(F)(F)Oc1ccc(-c2ccc(CCCNc3nc(C(F)(F)F)nc4sccc34)cc2)cc1 [Example 296, N-(3-(4′-(trifluoromethoxy)-[1,1′-biphenyl]-4-yl)propyl)-2-(trifluoromethyl) thieno[2,3-d]pyrimidin-4-amine] | 270 |
| Cc1cc2c(NCC#Cc3ccccc3)nc(C(F)(F)F)nc2s1 [Example 162, 6-methyl-N-(3-phenylprop-2-yn-1-yl)-2-(trifluoromethyl) thieno[2,3-d] pyrimidin-4-amine] | 6000 |
| Cc1cc2c(NCCCc3ccc(-c4ccc(OC(F)(F)F)cc4)cc3)nc(-c3ccn(C)n3)nc2s1 [Example 450, 6-methyl-2-(1-methyl-1H-pyrazol-3-yl)-N-(3-(4′-(trifluoromethoxy)-[1,1′-biphenyl]-4-yl)propyl)thieno[2,3-d]pyrimidin-4-amine] | 490 |
| Cc1cc2c(NCCCc3ccccc3)nc(C(C)(C)N)nc2s1 [Example 73, 2-(2-aminopropan-2-yl)-6-methyl-N-(3-phenylpropyl)thieno [2,3-d]pyrimidin-4-amine] | > 10000 |
| Cc1cc2c(NC(CCc3ccccc3)C(F)(F)F)nc(C(F)(F)F)nc2s1 (centres unmarked) [Example 169, 6-methyl-N-(1,1,1-trifluoro-4-phenylbutan-2-yl)-2-(trifluoromethyl) thieno[2,3-d] pyrimidin-4-amine] | > 10000 |
| Cc1nc2c(N[C@@H]3C[C@H]3c3ccc(F)c(F)c3)nc(-c3ccc(C(F)(F)F)cn3)nc2s1 [Example 144, N-((1R,2S)-2-(3,4-difluorophenyl)cyclopropyl)-2-methyl-5-(5-(trifluoromethyl)pyridin-2-yl)thiazolo[5,4-d]pyrimidin-7-amine] | > 10000 |
| CCc1nc(NCCCc2ccc(-c3ccc(Cl)cc3Cl)cc2)c2cc(C)sc2n1 [Example 300, N-(3-(2′,4′-dichloro-[1,1′-biphenyl]-4-yl)propyl)-2-ethyl-6-methylthieno[2,3-d]pyrimidin-4-amine] | 76 |
| CCc1nc(NCC#Cc2ccccc2)c2cc(C)sc2n1 [Example 193, 2-ethyl-6-methyl-N-(3-phenylprop-2-yn-1-yl)thieno[2,3-d]pyrimidin-4-amine] | 1800 |
| CCc1nc(NC/C=C/c2ccccc2)c2cc(C)sc2n1 [Example 61, N-cinnamyl-2-ethyl-6-methylthieno[2,3-d]pyrimidin-4-amine] | 70 |
| Cc1cc2c(NCCCc3ccccc3O)nc(C(F)(F)F)nc2s1 [Example 589, 2-(3-((6-methyl-2-(trifluoromethyl)thieno[2,3-d]pyrimidin-4-yl)amino)propyl)phenol] | > 10000 |
| Cc1cc2c(NCCCc3ccc(-c4ccc(N(C)C)nn4)cc3)nc(-c3ccoc3)nc2s1 [Example 400, 6-[4-(3-([2-(furan-3-yl)-6-methylthieno [2,3-d]pyrimidin-4-yl]amino)propyl)phenyl]-N,N-dimethylpyridazin-3-amine] | > 500 |
| Cc1cc2c(NCCCc3ccc(N=[N+]=[N-])cc3)nc(C(F)(F)F)nc2s1 [Example 592, N-(3-(4-azidophenyl)propyl)-6-methyl-2-(trifluoromethyl)thieno[2,3-d]pyrimidin-4-amine] | 4400 |
| CCc1nc(NCCCc2ccc(Oc3ccccc3)cc2)c2cc(C)sc2n1 [Example 201, 2-ethyl-6-methyl-N-(3-(4-phenoxyphenyl)propyl)thieno[2,3-d]pyrimidin-4-amine] | 610 |

| Structure (SMILES) | IC50 [nM] |
| --- | --- |
| Cc1cc2c(NCCCc3ccccc3)nc(N(C)C)nc2s1 [Example 77, N2,N2,6-trimethyl-N4-(3-phenylpropyl)thieno [2,3-d]pyrimidine-2,4-diamine] | 140 |
| Cc1cc2c(NCCCc3ccccc3)nc(-c3ccon3)nc2s1 [Example 110, 2-(isoxazol-3-yl)-6-methyl-N-(3-phenylpropyl)thieno [2,3-d]pyrimidin-4-amine] | 55 |
| CCc1nc(NCCC(c2ccccc2)c2ccccc2)c2cc(C)sc2n1 [Example 170, N-(3,3-diphenylpropyl)-2-ethyl-6-methylthieno[2,3-d]pyrimidin-4-amine] | 360 |
| Cc1cc2c(NCCCc3ccc(-c4ccc(F)c(F)c4)cc3)nc(C(F)(F)F)nc2s1 [Example 287, N-(3-(3′,4′-difluoro-[1,1′-biphenyl]-4-yl)propyl)-6-methyl-2-(trifluoromethyl) thieno[2,3-d]pyrimidin-4-amine] | 190 |
| Cc1cc2c(NCCCc3ccc(-c4cnc(C(F)(F)F)cn4)cc3)nc(-c3ccoc3)nc2s1 [Example 379, 2-(furan-3-yl)-6-methyl-N-(3-(4-[5-(trifluoromethyl)pyrazin-2-yl]phenyl)propyl) thieno[2,3-d]pyrimidin-4-amine] | 12 |
| CSc1nc(NCCCc2ccc(-c3ccc(C(F)(F)F)cn3)cc2)c2cc(C)sc2n1 [Example 458, 6-methyl-2-(methylthio)-N-(3-(4-(5-(trifluoromethyl)pyridin-2-yl)phenyl)propyl)thieno[2,3-d]pyrimidin-4-amine] | 14 |
| Cc1cc2c(NCC(O)Cc3ccccc3)nc(C(F)(F)F)nc2s1 (centres unmarked) [Example 163, 1-((6-methyl-2-(trifluoromethyl)thieno[2,3-d]pyrimidin-4-yl)amino)-3-phenylpropan-2-ol] | > 10000 |
| Cc1cc2c(NCCCc3ccc(-c4ccc(OC(F)(F)F)cc4)nc3)nc(C(F)(F)F)nc2s1 [Example 262, 6-methyl-N-(3-(6-(4-(trifluoromethoxy)phenyl)pyridin-3-yl)propyl)-2-(trifluoromethyl) thieno[2,3-d]pyrimidin-4-amine;] | 470 |
| CCc1nc(NCCC(C)(C)c2ccccc2)c2cc(C)sc2n1 [Example 66, 2-ethyl-6-methyl-N-(3-methyl-3-phenylbutyl)thieno [2,3-d]pyrimidin-4-amine] | 6000 |
| CCc1nc(NCCCN2CCCc3ccccc32)c2cc(C)sc2n1 [Example 192, N-(3-(3,4-dihydroquinolin-1(2H)-yl)propyl)-2-ethyl-6-methylthieno[2,3-d]pyrimidin-4-amine] | 930 |
| CCc1nc(NCCCn2cccc2)c2cc(C)sc2n1 [Example 27, N-(3-(1H-pyrrol-1-yl)propyl)-2-ethyl-6-methylthieno[2,3-d]pyrimidin-4-amine] | 210 |
| CSc1nc(NCCCc2ccc(-c3ccc(C(F)(F)F)nc3)cc2)c2cc(C)sc2n1 [Example 431, 6-methyl-2-(methylthio)-N-(3-(4-(6-(trifluoromethyl)pyridin-3-yl)phenyl)propyl)thieno[2,3-d]pyrimidin-4-amine] | 20 |
| CCc1nc(NCCc2ccc(-c3ccccc3)cc2)c2cc(C)sc2n1 [Example 26, N-(2-([1,1′-biphenyl]-4-yl)ethyl)-2-ethyl-6-methylthieno[2,3-d]pyrimidin-4-amine] | 1200 |
| COC(C)(C)c1nc(NCCCc2ccccc2)c2cc(C)sc2n1 [Example 116, 2-(2-methoxypropan-2-yl)-6-methyl-N-(3-phenylpropyl)thieno [2,3-d]pyrimidin-4-amine] | > 10000 |
| CNC(=O)c1nc(NCCCc2ccc(OC(F)(F)F)cc2)c2cc(C)sc2n1 [Example 564, N,6-dimethyl-4-((3-(4-(trifluoromethoxy)phenyl)propyl)amino)thieno[2,3-d]pyrimidine-2-carboxamide] | 1200 |
| CCc1nc(NCCCc2ccccc2F)c2cc(C)sc2n1 [Example 200, 2-ethyl-N-(3-(2-fluorophenyl)propyl)-6-methylthieno[2,3-d]pyrimidin-4-amine] | 650 |
| Cc1cc2c(NCCCc3cccs3)nc(C(F)(F)F)nc2s1 [Example 239, 6-methyl-N-(3-(thiophen-2-yl)propyl)-2-(trifluoromethyl) thieno[2,3-d] pyrimidin-4-amine] | > 6800 |
| Cc1cc2c(NCCCc3ccc(-c4cnc(F)cn4)cc3)nc(-c3ccoc3)nc2s1 [Example 377, N-(3-[4-(5-fluoropyrazin-2-yl)phenyl]propyl)-2-(furan-3-yl)-6-methylthieno [2,3-d]pyrimidin-4-amine] | 8 |
| Cc1cc2c(NCCCc3ccc(-c4ccc(Cl)cc4)cc3)nc(Cl)nc2s1 [Example 435, 2-chloro-N-(3-(4′-chloro-[1,1′-biphenyl]-4-yl)propyl)-6-methylthieno[2,3-d]pyrimidin-4-amine] | 30 |
| CCc1nc(NCCCc2ccc(-n3ccnn3)cc2)c2cc(C)sc2n1 [Example 593, N-(3-(4-(1H-1,2,3-triazol-1-yl)phenyl)propyl)-2-ethyl-6-methylthieno[2,3-d]pyrimidin-4-amine] | 530 |
